How the values were obtained:
T-cell = test: IL-2 secretion from T-cells stimulated with anti-CD3 antibody alone (Biological Example 2); type: cell-based; conditions: primary human total T-cells, read-out: IL-2 secretion, Anti-CD3 stimulation, fold change over baseline; for fold induction at 1 µM: 1 μM compound; for fold induction at 8 µM: 8 μM compound
anergic human T-cells = test: Anergic T-cell activation assessed by IFNγ secretion (ionomycin-induced anergy); type: cell-based; conditions: anergic T-cells re-challenged with anti-CD3 and anti-CD28 for 24 hours, read-out: IFNγ Fold change from baseline
Text: Peripheral blood mononuclear cells (PBMC) were obtained either: 1) by using Ficoll-Paque™ (GE Healthcare) for separation of peripheral blood hematopoietic cells from buffy coats of healthy human donors; or 2) directly from LeukoPak donations. Total human primary T-cells were isolated from the PBMCs utilizing negative selection with commercial kits following the manufacturer's protocol (Miltenyi Catalog #130-096-535 (i.e., cocktail of antibodies against surface markers CD14, CD15, CD16, CD19, CD34, CD36, CD56, CD123 and CD235a were incubated with the PBMCs before passing the samples by magnetic beads for removal of cells expressing those surface markers) or StemCells Catalog #17951) to yield >95% CD3+ cells assessed by flow cytometry. The cells were activated with immobilized anti-CD3 antibody (OKT3) and soluble anti-CD28 antibody (28.2) for two days at which time they are washed and allowed to rest for three days in the absence of stimulation. They were then treated with ionomycin (Sigma) for 18-24 hours to induce anergy. Following two washes to remove the ionomycin from the samples, Cbl-b inhibitor compounds were added to the cells at the indicated concentrations (e.g. 10, 1.11 and 0.37 μM) and incubated for 1 hour. The cells were then re-challenged with anti-CD3 antibody and anti-CD28 antibody for 24 hours at which point cell free supernatants were collected and assessed for cytokines (e.g., IFNγ) by ELISA (R&D Systems or Peprotech) or Luminex multiplex kits (Procarta Life Technologies) following manufacturer's protocols.
Cbl-b inhibitors were tested to determine their ability to induce or enhance secretion of cytokines from anergic T-cells (e.g. IFNγ), which is indicative of decreased T-cell tolerance.
Readouts were reported as fold change over baseline. Baseline for this study was the measurement obtained from anergic human T-cells stimulated with immobilized anti-CD3 and soluble anti-CD28, wherein the T-cells were not incubated with a Cbl-b inhibitor (Table 7). For IFNγ changes greater than 2.5-fold over baseline were considered a positive response (Table 7). Compounds were ranked into bins according to their readout as follows for IFNγ: A indicates ≤2.50, B indicates 2.51-4.00 and C indicates >4.01.

T-cells = test: In vivo activity: CD25 expression on CD4+ or CD8+ T-cells of mice stimulated with anti-CD3 antibody; conditions: 2 μg anti-CD3 antibody, 24 hours
Description: A method of determining the pharmacodynamic profile of Cbl-b inhibitors was performed by dosing strains of mice with competent immune systems such as C57BL/6 or BALB/c with a Cbl-b inhibitor. The Cbl-b inhibitor was dissolved in a suitable formulation and administered by one of various routes such as intravenous (IV), intraperitoneal (IP), subcutaneous (SC), or oral (PO), at a suitable dose level and frequency (e.g. twice per day BID or thrice per day TID) as informed by prior pharmacokinetic and tolerability studies. Following administration of the Cbl-b inhibitor, T-cells and indirectly other immune cells (e.g. via cytokine production) were stimulated in vivo by administration of an anti-CD3 antibody or antigen-binding fragment thereof in PBS at defined amounts such as 2 μg or 10 μg per animal by routes such as IV or IP (See Hirsh et al., J. Immunol., 1989; Ferran, et al., Eur. J. Immunol., 1990). Additional study control arms included groups of mice treated with a vehicle formulation alone (i.e., formulation without the Cbl-b inhibitor and anti-CD3 antibody), a formulation containing the Cbl-b inhibitor alone, a formulation containing the anti-CD3 antibody alone, PBS alone, or combinations of these agents. The level of immune activation was then assessed by analysis of plasma cytokine levels and/or expression of activation markers on immune cells (e.g. T-cells). Blood or lymphoid organs (e.g. spleen) were collected at defined time points (e.g. 8 hours or 24 hours). Blood samples were processed to collect plasma for determination of cytokine levels using standard methods known in the art. Cytokines measured included IL-2, IFNγ, and TNFα. Additional blood samples and lymphoid tissues were processed for flow cytometric analysis of immune cells (e.g. T-cells) using standard methods to determine expression of cell type-specific markers and activation markers such as CD25 and/or CD69. Augmentation of immune stimulation by Cbl-b inhibitor administration was assessed by comparing the relative concentrations of cytokines in plasma, or the expression levels of activation markers on immune cells between appropriate groups (e.g. mice treated with Cbl-b inhibitor and 2 μg anti-CD3 antibody versus mice treated with vehicle and 2 μg anti-CD3 antibody).
Cbl-b inhibitors were tested to determine their ability to induce or enhance the level of cytokines (e.g. IL-2, IFNγ, and TNFα) in blood obtained from treated mice stimulated with an anti-CD3 antibody, which is indicative of modulation of the immune response. Cbl-b inhibitors were also tested to determine their ability to induce or enhance the expression of cell surface markers on T-cells (e.g. CD25 and/or CD69) isolated from treated mice stimulated with an anti-CD3 antibody, which is indicative of modulation of the immune response.
Readouts were reported as fold change over baseline. The fold change was calculated from the mean value of mice treated with Cbl-b inhibitor and 2 μg anti-CD3 antibody, with the baseline defined as the mean value of mice treated with vehicle and 2 μg anti-CD3 antibody. Increases in the percentage of cells with surface expression of CD25 on CD4+ T-cells or CD8+ T-cells greater than 1.5-fold over baseline at 24 hours were considered a positive response. Increases in the plasma concentration of IL-2, IFNγ, and TNFα greater than 1.5-fold over baseline at 8 hours post-stimulation were also considered a positive response (Table 8). Fold changes were ranked into bins according to their readouts as follows: A indicates >2.50, B indicates 2.01-2.50, C indicates 1.51-2.00, D indicates 1.00-1.50, and E indicates <1.00.

Structure (SMILES)	fold induction at 1 µM (T-cell)	fold induction at 8 µM (T-cell)	fold induction at 0.37 µM (anergic human T-cells)	fold induction at 1.11 µM (anergic human T-cells)	fold induction at 10 µM (anergic human T-cells)	CD4+ T-cell % CD25+ (T-cells; 90 mpk PO BID)	CD8+ T-cell % CD25+ (T-cells; 90 mpk PO BID)	CD4+ T-cell % CD25+ (T-cells; 135 mpk PO BID)	CD8+ T-cell % CD25+ (T-cells; 135 mpk PO BID)	CD4+ T-cell % CD25+ (T-cells; 180 mpk PO BID)	CD8+ T-cell % CD25+ (T-cells; 180 mpk PO BID)
C[C@H](Cc1nncn1C)c1cccc(N2Cc3c(cc(CN4CC[C@](C)(O)C4)cc3C(F)(F)F)C2=O)c1 [Compound 398, 6-(((S)-3-hydroxy-3-methylpyrrolidin-1-yl)methyl)-2-(3-((R)-1-(4-methyl-4H-1,2,4-triazol-3-yl)propan-2-yl)phenyl)-4-(trifluoromethyl)isoindolin-1-one]	0.101 to 0.15	> 0.201	≤ 2.5	> 4.01	> 4.01						
Cn1cnnc1CC1(c2cccc(N3Cc4c(cc(CN5CC[C@H](C#N)C5)cc4C(F)(F)F)C3=O)c2)COC1 [Compound 422, (S)-1-((2-(3-(3-((4-methyl-4H-1,2,4-triazol-3-yl)methyl)oxetan-3-yl)phenyl)-3-oxo-7-(trifluoromethyl)isoindolin-5-yl)methyl)pyrrolidine-3-carbonitrile]	> 0.201	> 0.201	≤ 2.5	2.51 to 4	2.51 to 4						
Cn1cnnc1C(F)(F)[C@](C)(F)c1cccc(N2Cc3c(cc(C(=O)N4CC[C@H](O)C4)cc3C(F)(F)F)C2=O)c1 [Compound 438, 6-((S)-3-hydroxypyrrolidine-1-carbonyl)-2-(3-((R)-1,1,2-trifluoro-1-(4-methyl-4H-1,2,4-triazol-3-yl)propan-2-yl)phenyl)-4-(trifluoromethyl)isoindolin-1-one]	0.101 to 0.15	> 0.201	≤ 2.5	≤ 2.5	> 4.01						
Cn1cnnc1CC1(c2cccc(NC(=O)c3nc4c(C(F)(F)F)cccc4[nH]3)c2)COC1 [Compound 335, N-(3-{3-[(4-methyl-1,2,4-triazol-3-yl)methyl]oxetan-3-yl}phenyl)-4-(trifluoromethyl)-1H-1,3-benzodiazole-2-carboxamide]			≤ 2.5	2.51 to 4	> 4.01						
Cc1cc(C(=O)Nc2cccc([C@@H](C)Cc3nncn3C)c2)nc(C2CC2)n1 [Compound 325, (S)-2-Cyclopropyl-6-methyl-N-(3-(1-(4-methyl-4H-1,2,4-triazol-3-yl)propan-2-yl)phenyl)pyrimidine-4-carboxamide]			≤ 2.5	≤ 2.5	≤ 2.5						
C[C@H](Cc1nncn1C)c1cccc(NC(=O)c2n[nH]c3c2CCC3)c1 [Compound 313, (R)-N-(3-(1-(4-Methyl-4H-1,2,4-triazol-3-yl)propan-2-yl)phenyl)-1,4,5,6-tetrahydrocyclopenta[c]pyrazole-3-carboxamide]			≤ 2.5	≤ 2.5	≤ 2.5						
Cn1cnnc1C(F)(F)[C@](C)(F)c1cccc(N2Cc3c(cc(CN4CCC(F)(F)C4)cc3C(F)(F)F)C2=O)c1 [Compound 448, (R)-6-((3,3-difluoropyrrolidin-1-yl)methyl)-2-(3-(1,1,2-trifluoro-1-(4-methyl-4H-1,2,4-triazol-3-yl)propan-2-yl)phenyl)-4-(trifluoromethyl)isoindolin-1-one]	0.101 to 0.15	> 0.201				D (D indicates 1.00-1.50)	E (E indicates <1.00)	D (D indicates 1.00-1.50)	E (E indicates <1.00)	D (D indicates 1.00-1.50)	E (E indicates <1.00)
Cn1cnnc1CC1(c2cccc(N3Cc4c(cc(CN5C[C@H]6C[C@H]6C5)cc4C(F)(F)F)C3=O)c2)COC1 [Compound 429, 6-(((1R,5S)-3-azabicyclo[3.1.0]hexan-3-yl)methyl)-2-(3-(3-((4-methyl-4H-1,2,4-triazol-3-yl)methyl)oxetan-3-yl)phenyl)-4-(trifluoromethyl)isoindolin-1-one]	> 0.201	> 0.201						D (D indicates 1.00-1.50)	D (D indicates 1.00-1.50)		
Cn1cnnc1C(F)(F)[C@](C)(F)c1cccc(N2Cc3c(cc(CN4CC[C@H](F)C4)cc3C(F)(F)F)C2=O)c1 [Compound 447, 6-(((S)-3-fluoropyrrolidin-1-yl)methyl)-2-(3-((R)-1,1,2-trifluoro-1-(4-methyl-4H-1,2,4-triazol-3-yl)propan-2-yl)phenyl)-4-(trifluoromethyl)isoindolin-1-one]	> 0.201	> 0.201				D (D indicates 1.00-1.50)	E (E indicates <1.00)	D (D indicates 1.00-1.50)	E (E indicates <1.00)	C (C indicates 1.51-2.00)	D (D indicates 1.00-1.50)
Cn1cnnc1CC1(c2cccc(N3Cc4c(cc(CN5CC[C@H](F)C5)cc4C(F)(F)F)C3=O)c2)COC1 [Compound 410, 6-{[(3S)-3-fluoropyrrolidin-1-yl]methyl}-2-(3-{3-[(4-methyl-4H-1,2,4-triazol-3-yl)methyl]oxetan-3-yl}phenyl)-4-(trifluoromethyl)-2,3-dihydro-1H-isoindol-1-one]	> 0.201	> 0.201				D (D indicates 1.00-1.50)	D (D indicates 1.00-1.50)	D (D indicates 1.00-1.50)	D (D indicates 1.00-1.50)	D (D indicates 1.00-1.50)	D (D indicates 1.00-1.50)
Cn1cnnc1CC1(c2cccc(N3Cc4c(cc(CN5CC6(CC6)C5)cc4C(F)(F)F)C3=O)c2)COC1 [Compound 487, 6-{5-azaspiro[2.3]hexan-5-ylmethyl}-2-(3-{3-[(4-methyl-1,2,4-triazol-3-yl)methyl]oxetan-3-yl}phenyl)-4-(trifluoromethyl)-3H-isoindol-1-one]	> 0.201							C (C indicates 1.51-2.00)	D (D indicates 1.00-1.50)		
